Columns and labels:
[1] = test system: passive cutaneous anaphylaxis (PCA) of rats; experiment: Inhibition of passive cutaneous anaphylaxis (PCA) of rats; assay type: in vivo; details: 15 mg/kg by gavage, 3 days
Method: Hair on the back of 40 SD rats, 180 g±10 was shaved off. 0.2 ml of a diluted rat-antiserum (1:10) was hypodermically injected into each rat through two places on the back, 0.1 ml for each place. After being injected, the rats were di vided randomly into four groups, which were administered by gavage with 75 mg/kg of total coumarins, 150 mg/kg of total coumarins, 15 mg/kg of anthralin and 15 ml/kg of distilled water for 3 days, once per day. After the injection with the rat-antiserum 48 hours, 1 ml of 0.5% evans blue, […], was intravenously injected into the rats through the caudal vein. The rats were killed in 20 minutes. A piece of skin with blue speckles was taken out from the back, and immersed in 5 ml solution of acetone/physiological saline (acetone:physiological saline=7-3 v/v) for 24 hs. After centrifugation; the supernatant was taken for measuring the optical density (OD) at 590 nm. Inhibition rate was obtained in accordance with the following equation. […] Inhibition (%)=[OD(control)−OD(drug)]×100%/OD(control)

vaginal epithelial cells = experiment: Effect on mitosis of vaginal epithelial cells in mice; assay type: in vivo; details: 15 mg/kg by gavage, once a day for 3 days; mitoses per 100 fundus cells
Method: 60 female NIH mice of 27 g±2 g were selected. After being intraperitoneally injected with diethylstilbesrolum for 3 days continuously, 0.2 mg/day for each animal, all the mice were left in estrum interval. From the 4th day, the mice were randomly divided into four groups, 15 mice each. The mice of the four groups were administrated for three days by gavage with 150 mg/kg of total coumarins, 75 mg/kg of total coumarins, 15 mg/kg of anthralin and 15 ml/kg of physiological saline, respectively, once one day. The last administration was carried out at 8:00 am in order to avoid the interference of various administration rhythms between day and night in the mice to the test result. At 9:00 am, 2 mg/kg of colchicine was injected to the mice to make the mitosis of vaginal epithelial cells stopped at the middle cycle of M phase.
The mice were killed at 2 pm. A sample from the vagina of the animal was taken out and fixed in a 10% formaldehyde solution. A slice of tissue was observed under an optical microscope. The number of mitosis per 300 fundus cells was counted to obtain an average number of mitosis among 100 fundus cells, which was regarded as the index of mitosis of vaginal epithelial cells.

Question: Which results are given for O=C1c2c(O)cccc2Cc2cccc(O)c21 [Anthralin, anthralin]?
Answer: OD ([1]; OD at 590 nm of evans blue skin extract): 0.043 ± 0.25; inhibition at 15 mg/kg ([1]; Rattus norvegicus, po, 72 h): 51.7%; Index of Mitosis % (vaginal epithelial cells): 13.4 ± 2.1 %

Reference: patent US10383843B2, “Use of total coumarins of cnidium fruit in preparing medicaments for treating psoriasis” (priority 2013, dated 2019)
